This passage reports Kd results from publication PMC12577588 (2025).

For this assay, the system named is telo24 DNA (DNA, G4) TTAGGGTTAGGGTTAGGGTTAGGG
The assay can be described thus: UV-vis titration. Conditions: K+ 100 mM; 10 mM HEPES pH 7.4, 1 mM Na2EDTA; 5 μM porphyrin; error is SE.

In the case of `C[n+]1ccc(-c2c3nc(c(-c4cc[n+](C)cc4)c4ccc([nH]4)c(-c4cc[n+](C)cc4)c4nc(c(-c5cc[n+](C)cc5)c5ccc2[nH]5)C=C4)C=C3)cc1`, the Kd is recorded as 0.93 (0.18) μM.
